Data from patent publication US11008325B2, “Inhibitors of cancer invasion, attachment, and/or metastasis” (VIRGINIA COMMONWEALTH UNIVERSITY, priority 2016, dated 2021).
“Also recorded” adds a separate entry of the source. Read-outs that look alike come from different tables or passages of the source.

How the values were obtained:
[1] = target: T1, MDA-9 PDZ12 tandem domain (PDZ1) (Homo sapiens, UniProt O00560); assay: NMR [15N,1H] HSQC chemical shift change and titration binding
T1 construct: the MDA-9/Syntenin construct used for the screen contains both PDZ domains; made in house
T1 sequence (O00560 110-274): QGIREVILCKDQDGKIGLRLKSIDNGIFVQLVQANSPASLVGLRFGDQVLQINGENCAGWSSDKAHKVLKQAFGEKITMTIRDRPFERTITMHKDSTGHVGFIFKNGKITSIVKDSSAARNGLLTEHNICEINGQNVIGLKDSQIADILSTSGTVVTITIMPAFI
Protocol: FIGS. 4A-4E. FIG. 4A. […] FIG. 4B. Superposition of 2D [^15N, ^1H]-HSQC spectra of 50 μM MDA-9 PDZ12 tandem domain in the absence and presence of 350 μM 113B7. FIG. 4C. Binding curve and representative spectra for the titration of 113B7 against MDA-9 PDZ12 tandem domain. Top: Zoom of box region in FIG. 4B after titrating 113B7 into Mda9 PDZ, tandem domain. […] Bottom: Titration curve of 113B7 for residue A147. […] FIG. 4D. […] FIG. 4E. Docked structure of 113B7 in complex with MDA-9 PDZ tandem domain (PDB: 1W9E). The pose was obtained with GOLD. Two PDZ domains of MDA-9 are labeled.
NMR based screening of an house assembled fragment library of about 5,000 compounds using [^15N,^1H] […] The proposed docked structure of PDZ1i in the PDZ1 domain and interdomain of MDA-9/Syntenin is shown in FIGS. 4A-4E and FIG. 5, while the chemical structure of PDZ1i is also shown in FIGS. 4A-4E and FIG. 5.
In all binding assays, the MDA-9/Syntenin construct used for the screen contains both PDZ domains. Constructs uniformly labeled with ^15N and ^13C or ^13C-Met selectively labeled are used for binding, mapping and structural studies. These same proteins are used for ITC binding studies.

IGF-1R and STAT3 = assay: western blot after hIGFBP-2 stimulation; format: cell-based; conditions: dose- and time-dependent
Protocol: FIGS. 17A-17H. Effect of PDZ1i on invasion, MDA-9/IGF-R1 interaction and IGF-R1, STAT3 and SRC phosphorylation. FIG. 17A) Different cancer cells (25,000 cells/well) from various anatomic origins were pre-treated with either DMSO (vehicle) or PDZ1i (dose as indicated) and invasion ability was assayed using modified Boyden Chamber according to the manufacturer's instructions. Photomicrographs were taken at 10× magnification and quantification of the results of three independent experiments is provided in the graphs. The data presents mean±S.D. B) The designated cells were treated with DMSO or PDZ1i and invasion properties were determined using a modified Boyden Chamber assay (BD bioscience). RWPE-1 mda-9: mda-9 transiently overexpressing cell line. […] FIG. 17E) Cells were growth starved for 24 h and treated with either DMSO or PDZ1i (dose indicated in μM) for 6 h. Cells were treated with human recombinant IGFBP-2 (hIGFBP-2, 10 ng/ml) for 2 h, lysates were prepared and western blot analysis was conducted with specific antibodies. FIG. 17F) Cells were serum-starved for 24 h and treated with either DMSO or PDZ1i (20 μM) for 6 h. […] Cells were treated with human recombinant […] (hIGFBP-2, 1 ng/ml) for 2 h, cell lysates were prepared and analyzed by western blotting. […]

## Cc1cc(NC(=O)c2nc3[nH]c4c(c(=O)n3n2)CCC4)c(C)cc1NC(=O)CCc1nnc(-c2ccccc2)o1 [113B7, N-(2,5-dimethyl-4-(3-(5-phenyl-1,3,4-oxadiazol-2-yl)propanamido)phenyl)-8-oxo-5,6,7,8-tetrahydro-4H-cyclopenta[d][1,2,4]triazolo[1,5-a]pyrimidine-2-carboxamide]
[1]; NMR titration (and ITC)
  dissociation constant / affinity in words: low micromolar range; also recorded: micromolar affinity
[1]; NMR titration following backbone amide of residue 147, read-out: Kd values
  Kd: 21.4 ± 8.62 µM
[1]; NMR titration, read-out: upper limit for the dissociation constant of the complex, Kd
  Kd: < 10 µM
[1]; chemical shift change (DPPM) of backbone amide of residue 147, 50 μM PDZ12, compound at 1:1 molar ratio
  Binding affinity ranking: 4 (4 for DPPM 0.06-0.08)
[1]; estimated by NMR titration in 2D HSQC experiments (Table 4), read-out: Kd
  Kd: ~10 µM
IGF-1R and STAT3
  IGF-1R and STAT3 activity: down regulates
